Biological target: IP3R1 (HEK-IP3R1 cells) (Rattus norvegicus, UniProt P29994)
Assay: Ca2+ release from stores of permeabilized cells, Mag-fluo […]
Format: cell-based

Sequence of IP3R1 (HEK-IP3R1 cells) (P29994 whole entry): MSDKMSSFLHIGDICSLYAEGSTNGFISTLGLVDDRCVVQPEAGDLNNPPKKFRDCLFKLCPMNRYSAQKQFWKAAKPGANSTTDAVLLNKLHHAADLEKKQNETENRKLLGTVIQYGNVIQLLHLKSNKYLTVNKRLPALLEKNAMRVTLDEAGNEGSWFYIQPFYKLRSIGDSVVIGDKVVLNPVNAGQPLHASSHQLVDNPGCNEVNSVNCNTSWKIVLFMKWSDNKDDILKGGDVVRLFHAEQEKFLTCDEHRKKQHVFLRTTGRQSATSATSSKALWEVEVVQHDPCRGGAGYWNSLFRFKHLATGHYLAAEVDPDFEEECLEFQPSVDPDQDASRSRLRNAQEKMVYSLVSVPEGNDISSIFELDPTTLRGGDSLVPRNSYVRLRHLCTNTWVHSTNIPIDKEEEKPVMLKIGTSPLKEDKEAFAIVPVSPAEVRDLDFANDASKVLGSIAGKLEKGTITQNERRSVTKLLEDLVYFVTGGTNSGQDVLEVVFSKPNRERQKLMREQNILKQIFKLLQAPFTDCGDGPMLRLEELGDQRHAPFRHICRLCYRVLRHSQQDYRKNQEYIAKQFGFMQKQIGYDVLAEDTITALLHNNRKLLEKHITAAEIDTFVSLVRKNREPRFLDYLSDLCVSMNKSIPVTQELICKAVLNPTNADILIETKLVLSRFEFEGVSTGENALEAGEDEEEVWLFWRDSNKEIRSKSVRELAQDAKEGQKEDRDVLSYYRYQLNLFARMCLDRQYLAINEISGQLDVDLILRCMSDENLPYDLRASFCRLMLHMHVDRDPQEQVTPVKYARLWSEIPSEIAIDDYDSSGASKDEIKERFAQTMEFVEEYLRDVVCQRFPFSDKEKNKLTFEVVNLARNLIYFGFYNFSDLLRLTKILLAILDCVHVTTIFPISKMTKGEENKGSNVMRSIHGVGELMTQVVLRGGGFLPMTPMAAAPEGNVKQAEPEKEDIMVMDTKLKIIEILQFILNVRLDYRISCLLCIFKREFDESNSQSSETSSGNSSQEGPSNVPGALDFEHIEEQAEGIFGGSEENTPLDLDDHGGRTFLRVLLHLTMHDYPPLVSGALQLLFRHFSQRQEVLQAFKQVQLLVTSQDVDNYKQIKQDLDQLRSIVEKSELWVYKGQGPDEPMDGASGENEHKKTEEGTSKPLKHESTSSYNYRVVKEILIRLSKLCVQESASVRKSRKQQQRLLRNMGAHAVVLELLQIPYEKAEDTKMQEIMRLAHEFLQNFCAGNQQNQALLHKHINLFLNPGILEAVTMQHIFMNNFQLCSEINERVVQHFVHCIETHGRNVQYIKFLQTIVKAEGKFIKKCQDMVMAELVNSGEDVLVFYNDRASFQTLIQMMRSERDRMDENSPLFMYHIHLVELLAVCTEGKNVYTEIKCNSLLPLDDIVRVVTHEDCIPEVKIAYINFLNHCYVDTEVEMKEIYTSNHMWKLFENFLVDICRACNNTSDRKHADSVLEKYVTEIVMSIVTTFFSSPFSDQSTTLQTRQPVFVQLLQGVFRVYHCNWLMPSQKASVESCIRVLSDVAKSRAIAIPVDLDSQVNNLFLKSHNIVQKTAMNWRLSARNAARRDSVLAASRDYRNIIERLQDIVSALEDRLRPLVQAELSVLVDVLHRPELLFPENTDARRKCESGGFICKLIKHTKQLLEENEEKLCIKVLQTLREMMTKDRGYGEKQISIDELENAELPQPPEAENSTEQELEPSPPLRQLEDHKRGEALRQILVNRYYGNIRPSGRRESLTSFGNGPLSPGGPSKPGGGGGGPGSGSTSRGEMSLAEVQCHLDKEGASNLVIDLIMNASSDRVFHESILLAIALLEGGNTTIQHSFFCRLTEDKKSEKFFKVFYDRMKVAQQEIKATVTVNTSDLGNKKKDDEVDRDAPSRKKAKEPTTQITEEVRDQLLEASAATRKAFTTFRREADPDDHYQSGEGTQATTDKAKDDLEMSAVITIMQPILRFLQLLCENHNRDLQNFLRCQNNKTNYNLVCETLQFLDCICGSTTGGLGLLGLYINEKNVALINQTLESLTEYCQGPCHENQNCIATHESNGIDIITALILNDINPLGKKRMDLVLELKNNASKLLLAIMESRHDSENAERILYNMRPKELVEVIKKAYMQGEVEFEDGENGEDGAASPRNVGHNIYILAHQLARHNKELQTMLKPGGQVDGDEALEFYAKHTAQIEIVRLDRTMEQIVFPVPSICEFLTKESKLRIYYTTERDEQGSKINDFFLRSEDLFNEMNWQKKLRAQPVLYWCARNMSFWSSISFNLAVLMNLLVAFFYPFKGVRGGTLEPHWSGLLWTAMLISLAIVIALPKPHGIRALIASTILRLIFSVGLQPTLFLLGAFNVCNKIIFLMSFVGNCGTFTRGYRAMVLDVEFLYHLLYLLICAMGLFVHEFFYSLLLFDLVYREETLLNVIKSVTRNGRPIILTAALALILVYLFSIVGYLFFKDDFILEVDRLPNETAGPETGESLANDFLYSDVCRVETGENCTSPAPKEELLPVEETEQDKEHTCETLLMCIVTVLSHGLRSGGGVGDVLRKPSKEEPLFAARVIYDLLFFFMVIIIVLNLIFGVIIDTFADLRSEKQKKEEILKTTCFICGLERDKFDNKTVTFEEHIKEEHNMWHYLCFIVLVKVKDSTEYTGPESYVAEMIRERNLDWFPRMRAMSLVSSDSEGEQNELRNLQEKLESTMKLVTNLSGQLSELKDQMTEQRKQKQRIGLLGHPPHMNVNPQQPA

Molecule Nc1ncnc2c1ncn2[C@@H]1O[C@H](CO)[C@@H](O[C@H]2[C@H](O)[C@H](O)[C@@H](OP(=O)(O)O)[C@H](OP(=O)(O)O)[C@H]2O)[C@H]1OP(=O)(O)O [compound 5, 3' -O-(1″ -D-chiro-Inosityl)adenosine 2’, 3″, 4″ -trisphosphate] has an EC50 of 22 nM.

Source: article PMC7659177 (ACS omega, 2020)
